The source of these data is patent US11873295B2, “Allosteric chromenone inhibitors of phosphoinositide 3-kinase (PI3K) for the treatment of disease” (Petra Pharma Corporation, priority 2021, dated 2024).

Molecules are shown by their SMILES. Bounds are passed on as bounds.

Assay [1] addresses T1, human full length PIK3KA Wild-type (p110α/p85α complex) (Homo sapiens, UniProt P42336).
T1 construct: Recombinant, catalytically active human full length PIK3KA Wild-type and H1047R mutant were purchased as 1:1 complex; 6xHis (N); purchased EMD Millipore Sigma 14-602M
In words: PI3K-alpha kinase (PIK3CA) biochemical activity, wild-type, ADP-Glo. The note with it: PI3K-α (PIK3CA) biochemical, Soy PI lipid substrate. The source says:
(§1) PI3K-Alpha Kinase (PIK3CA) Activity, Wild-Type and H1047R Mutant and Determining IC50 Values for Inhibitors
(§2) Recombinant, catalytically active human full length PIK3KA Wild-type and H1047R mutant were purchased as 1:1 complex of N-terminal 6× his tagged p110α (catalytic) and untagged p85α (regulatory subunit) from EMD Millipore Sigma (cat. no. 14-602M and 14-792M, respectively). PIP2diC8 (Avanti Polar Lipids Inc., cat. no. 850185) or Soy PI (Avanti Polar Lipids Inc., cat. No. 840044P) was used as lipid substrate. PIP2diC8 or PI lyophilized powder was dissolved in milliQ water to a concentration of 1 mM just before use. 10 mM stock compounds in DMSO were serially diluted 1:3 to generate a 10-point curve and plated using an acoustic liquid handler system (Echo 550 series instrument, Labcyte). A 10× intermediate compound plate (200 uM starting compound concentration and 10% DMSO) was prepared before starting the reaction. A typical reaction mixture (50 uL) comprised 40 mM HEPES buffer, pH 7.4, 25 mM MgCl2, 0.01% v/v triton-X-100, 1% v/v DMSO, 20 mM NaCl, 1-5 nM WT or H1047R PI3K protein, 20 uM ATP, and 50 uM PIP2diC8 or Soy PI. 1% DMSO buffer alone without test compound was employed as MAX control (full activity in the absence of any inhibitor), and no enzyme control was used to determine the level of background Adenosine 5′-diphosphate (ADP) (MIN control). First, Wild-type (WT) and H1047R mutant protein in kinase buffer with all components except ATP were incubated with or without compound at 27° C. for 1 h. After the pre-incubation, the reaction was initiated by the addition of 20 uL of 50 uM ATP (20 uM final concentration). The reaction was allowed to proceed until about 10% conversion of ATP (2 uM ADP) at 27° C. After that time, 5 uL of reaction was mixed with 5 uL of ADP-Kinase Glo Reagent (ADP-Glo Kinase assay kit, Promega cat. no. V9102) supplemented with MgCl2 10 mM to stop the reaction and deplete the remaining ATP for 40 min at room temperature. Then, 10 uL of Kinase Detection Reagent (ADP-Glo Kinase assay kit, Promega cat. no. V9102) was added to simultaneously convert ADP to ATP and allow the newly synthesized ATP to be measured using a luciferase/luciferin reaction. After 30 min at room temperature the light generated was measured using a luminometer (EnVision plate reader, Perkin Elmer). Process data through Genedata-Screener tool. Relative IC50 values are determined using luminescence units by calculating percent inhibition with respect to on-plate “MIN” and “MAX” controls. Data was analyzed using a 4-parameter nonlinear logistic equation (four-parameter logistic concentration-response curve): Y=bot+[(top−bot)/1+(x/IC50)slope] where Y=% inhibition, X=concentration yielding y % inhibition, Bottom=minimum value of y attained by curve, Top=maximum value of y attained by curve and Slope=steepness of curve at IC50. % Inh=[(median Max−x/median Max−median Min)]·100 IC50: concentration of compound that reduces a given response (ligand binding, enzyme response) by 50%. IC50 relative: concentration giving half the compound's maximum response.
(§3) For IC50 values shown in Table A, “A” means IC50<0.5 μM; “B” means IC50 ranging between 0.5 μM and 1.0 μM; “C” means IC50 ranging between 1 μM and 5 μM; “D” means IC50 ranging between 5 μM and 10 μM; “E” means IC50>10 μM.
In general terms: ADP-Glo turns the ADP formed in a reaction into a luminescent signal.

Assay [2] deals with T2, human full length PIK3KA H1047R mutant (p110α/p85α complex) (Homo sapiens, UniProt P42336, H1047R).
T2 construct: Recombinant, catalytically active human full length PIK3KA Wild-type and H1047R mutant were purchased as 1:1 complex; 6xHis (N); purchased EMD Millipore Sigma 14-792M
T2 sequence (P42336 whole entry H1047R): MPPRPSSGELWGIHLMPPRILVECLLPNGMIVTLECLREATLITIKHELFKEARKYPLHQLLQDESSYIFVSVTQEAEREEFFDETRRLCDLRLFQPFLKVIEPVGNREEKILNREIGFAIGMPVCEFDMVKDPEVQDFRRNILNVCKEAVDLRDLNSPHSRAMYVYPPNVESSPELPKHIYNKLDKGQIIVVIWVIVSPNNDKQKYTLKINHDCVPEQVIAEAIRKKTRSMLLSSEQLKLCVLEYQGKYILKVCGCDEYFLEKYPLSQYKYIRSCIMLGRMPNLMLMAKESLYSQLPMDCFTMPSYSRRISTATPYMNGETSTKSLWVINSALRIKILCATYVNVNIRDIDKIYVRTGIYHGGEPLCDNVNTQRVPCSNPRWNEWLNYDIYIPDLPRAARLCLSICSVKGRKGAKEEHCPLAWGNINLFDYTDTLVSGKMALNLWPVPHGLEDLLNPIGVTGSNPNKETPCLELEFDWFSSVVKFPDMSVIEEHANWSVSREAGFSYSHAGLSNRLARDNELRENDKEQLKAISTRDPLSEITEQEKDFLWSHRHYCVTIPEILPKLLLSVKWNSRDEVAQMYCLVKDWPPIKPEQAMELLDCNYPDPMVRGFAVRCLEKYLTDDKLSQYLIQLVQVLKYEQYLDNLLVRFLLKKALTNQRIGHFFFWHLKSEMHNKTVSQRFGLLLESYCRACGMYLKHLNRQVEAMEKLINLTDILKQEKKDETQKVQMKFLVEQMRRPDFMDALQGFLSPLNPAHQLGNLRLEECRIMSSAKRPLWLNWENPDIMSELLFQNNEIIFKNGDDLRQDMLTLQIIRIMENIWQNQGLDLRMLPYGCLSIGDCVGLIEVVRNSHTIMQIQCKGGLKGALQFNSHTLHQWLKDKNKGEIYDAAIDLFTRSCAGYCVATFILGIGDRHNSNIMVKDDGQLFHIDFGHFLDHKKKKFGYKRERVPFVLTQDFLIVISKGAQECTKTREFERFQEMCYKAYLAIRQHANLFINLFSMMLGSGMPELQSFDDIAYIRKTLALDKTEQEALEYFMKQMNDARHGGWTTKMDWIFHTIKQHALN
T2 sequence (P27986 whole entry partner): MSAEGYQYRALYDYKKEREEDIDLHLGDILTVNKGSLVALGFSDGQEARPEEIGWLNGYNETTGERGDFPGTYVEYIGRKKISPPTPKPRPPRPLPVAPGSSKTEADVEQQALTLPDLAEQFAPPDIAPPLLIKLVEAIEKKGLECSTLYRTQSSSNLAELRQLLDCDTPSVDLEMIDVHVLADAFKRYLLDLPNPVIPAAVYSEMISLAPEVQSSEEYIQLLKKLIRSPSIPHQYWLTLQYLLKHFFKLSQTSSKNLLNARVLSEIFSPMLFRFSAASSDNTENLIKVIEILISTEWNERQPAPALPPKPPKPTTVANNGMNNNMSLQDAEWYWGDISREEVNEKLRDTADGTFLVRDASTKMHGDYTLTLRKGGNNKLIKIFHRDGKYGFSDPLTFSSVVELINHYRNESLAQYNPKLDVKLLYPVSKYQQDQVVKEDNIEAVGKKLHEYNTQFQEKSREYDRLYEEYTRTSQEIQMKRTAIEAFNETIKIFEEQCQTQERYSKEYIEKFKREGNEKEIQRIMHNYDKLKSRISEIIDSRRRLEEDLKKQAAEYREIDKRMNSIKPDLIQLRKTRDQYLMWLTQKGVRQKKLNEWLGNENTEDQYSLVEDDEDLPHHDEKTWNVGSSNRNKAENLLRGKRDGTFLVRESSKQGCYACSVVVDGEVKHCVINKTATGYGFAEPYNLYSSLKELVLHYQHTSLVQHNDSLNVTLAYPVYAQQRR
The assay can be described thus: PI3K-alpha kinase (PIK3CA) biochemical activity, H1047R mutant, ADP-Glo. The settings on record: PI3K-α (PIK3CA) biochemical, H1047R mutant, Soy PI lipid substrate.
Excerpt: as §1, §2, §3

By IC50 is commonly meant the concentration that gives 50% inhibition. Read a low IC50 as higher potency. With `Cc1cc([C@@H](C)Nc2ccccc2C(=O)O)c2oc(-c3cccc(C(F)F)c3)cc(=O)c2c1` [Example 71, 2-[[(1R)-1-[2-[3-(Difluoromethyl)phenyl]-6-methyl-4-oxo-chromen-8-yl]ethyl]amino]benzoic acid], the IC50 is 1 to 5 µM in assay [1] and under 0.5 µM in assay [2].

For `Cc1c(-c2ccccc2)oc2c([C@@H](C)Nc3ccccc3C(=O)O)cc(F)cc2c1=O` [Example 72, 2-[[(1R)-1-(6-Fluoro-3-methyl-4-oxo-2-phenyl-chromen-8-yl)ethyl]amino]benzoic acid 2,2,2-trifluoroacetic acid], the IC50 in assay [1] and in assay [2] was 1 to 5 µM each time.

Regarding `Cc1cc([C@@H](C)Nc2cncnc2C(=O)O)c2oc(-c3ccccc3)c(C)c(=O)c2c1` [Example 74, 5-[[(1R)-1-(3,6-Dimethyl-4-oxo-2-phenyl-chromen-8-yl)ethyl]amino]pyrimidine-4-carboxylic acid], the IC50 is over 10 µM in assay [1] and under 0.5 µM in assay [2].

As to `Cc1cc([C@@H](C)Nc2ccc(Br)cc2C(=O)O)c2oc(-c3ccccc3)c(C)c(=O)c2c1` [Example 77, 5-Bromo-2-[[(1R)-1-(3,6-dimethyl-4-oxo-2-phenyl-chromen-8-yl)ethyl]amino]benzoic acid], the IC50 in assay [1] was 1 to 5 µM; in assay [2], under 0.5 µM.

In the case of `Cc1cc([C@@H](C)Nc2ccccc2C(=O)O)c2oc(-c3ccccc3)c(I)c(=O)c2c1` [Example 79, 2-[[(1R)-1-(3-Iodo-6-methyl-4-oxo-2-phenyl-chromen-8-yl)ethyl]amino]benzoic acid 2,2,2-trifluoroacetic acid], the IC50 in assay [1] was 0.5 to 1 µM; in assay [2], under 0.5 µM.

For the molecule `C[C@@H](Nc1ccccc1C(=O)O)c1cc(F)cc2c(=O)cc(-c3cccc(C(F)F)c3)oc12` [Example 80, 2-[[(1R)-1-[2-[3-(Difluoromethyl)phenyl]-6-fluoro-4-oxo-chromen-8-yl]ethyl]amino]benzoic acid 2,2,2-trifluoroacetic acid], the IC50 in assay [1] was 5 to 10 µM; in assay [2], under 0.5 µM.

As to `C[C@@H](Nc1ccc(Cl)nc1C(=O)O)c1cc(C(F)(F)F)cc2c(=O)cc(-c3ccccc3)oc12` [Example 82, 6-Chloro-3-[[(1R)-1-[4-oxo-2-phenyl-6-(trifluoromethyl)-chromen-8-yl]ethyl]amino]pyridine-2-carboxylic acid], the results for the half-inhibitory concentration (IC50) in assay [1] and in assay [2] were 1 to 5 µM and under 0.5 µM, respectively.

As to `Cc1c(-c2cccc(C(F)F)c2)oc2c([C@@H](C)Nc3ccccc3C(=O)O)cc(F)cc2c1=O` [Example 83, 2-[[(1R)-1-[2-[3-(Difluoromethyl)phenyl]-6-fluoro-3-methyl-4-oxo-chromen-8-yl]ethyl]amino]benzoic acid 2,2,2-trifluoroacetic acid], the IC50 is 5 to 10 µM in assay [1] and under 0.5 µM in assay [2].

With `COc1ccc(NC(C)c2cc(C)cc3c(=O)c(C)c(-c4ccccc4)oc23)c(C(=O)O)n1` (centres unmarked) [Example 89, 3-[1-(3,6-Dimethyl-4-oxo-2-phenyl-chromen-8-yl)ethylamino]-6-methoxy-pyridine-2-carboxylic acid 2,2,2-trifluoroacetic acid], the IC50 in assay [1] is 1 to 5 µM; in assay [2] it was under 0.5 µM.

In the case of `C[C@@H](Nc1ccccc1C(=O)O)c1cc(C(F)(F)F)cc2c(=O)cc(-c3ccc(F)cc3F)oc12` [Example 90, 2-[[(1R)-1-[2-(2,4-Difluorophenyl)-4-oxo-6-(trifluoromethyl)-chromen-8-yl]ethyl]amino]benzoic acid], the IC50 in assay [1] was 5 to 10 µM; in assay [2], under 0.5 µM.

As to `Cc1cc(C(C)Nc2cccc(F)c2C(=O)O)c2oc(-c3ccccc3F)cc(=O)c2c1` (centres unmarked) [Example 97, 2-Fluoro-6-[1-[2-(2-fluorophenyl)-6-methyl-4-oxo-chromen-8-yl]ethylamino]benzoic acid 2,2,2-trifluoroacetic acid], the 50% inhibitory concentration (IC50) in assay [1] is 1 to 5 µM; in assay [2], under 0.5 µM.

Take `Cc1c(-c2cccc(C#N)c2)oc2c([C@@H](C)Nc3ccc(Cl)nc3C(=O)O)cc(C(F)(F)F)cc2c1=O` [Example 100, 6-Chloro-3-[[(1R)-1-[2-(3-cyanophenyl)-3-methyl-4-oxo-6-(trifluoromethyl)-chromen-8-yl]ethyl]amino]pyridine-2-carboxylic acid]: the half-maximal inhibitory concentration (IC50) in assay [1] was 0.5 to 1 µM; in assay [2], under 0.5 µM.

As to `Cc1cc([C@@H](C)Nc2ccc(Cl)nc2C(=O)O)c2oc(-c3ccccc3)c(C(F)(F)F)c(=O)c2c1` [Example 139, 6-Chloro-3-[[(1R)-1-[6-methyl-4-oxo-2-phenyl-3-(trifluoromethyl)-chromen-8-yl]ethyl]amino]pyridine-2-carboxylic acid 2,2,2-trifluoroacetic acid], the IC50 in assay [1] and in assay [2] was under 0.5 µM in each case.
